Assay results: patent US20250135012A1, “DENDRIMER CONJUGATES OF SMALL MOLECULE BIOLOGICS FOR INTRACELLULAR DELIVERY” (The Johns Hopkins University, priority 2021, published 2025)
Non-standard residues stand in square brackets, D forms with d. Residues, ends and D or L forms follow the SMILES beside them. Cya = N[C@@H](CS(=O)(=O)O)C(=O)O

Experiments:
HUVEC cells = experiment: HUVEC vessel formation assay on Matrigel; format: cell-based, human; details: 1 mM
Description: 96 well plates were coated with 75 μL of […]® and left at room temperature for 15 minutes before placing into 37° C. incubators for an additional 30 minutes. D-ALG1001 was dissolved at twice the desired concentration and 50 μL of the drug solution was added to the wells. HUVEC cells were then added to each well at a density of 70,000 cells/cm^2. Live-cell images were taken at 12 h for analysis.
To find the effective dose in a physiologically relevant model, an in vitro model of blood vessel formation was utilized. HUVEC cells were treated with a gradient concentration of D-ALG and ALG-1001 for 24 h at three different magnitudes of doses. The cells were then seeded on […]® after which cells naturally migrate to form blood vessel-like tubule structures. The images were analyzed with Angiogenesis Analyzer plug-in on ImageJ to extract relevant metrics that measure the connectivity and integrity of tube networks (FIG. 16).

ERK1/2 = experiment: Western blot, ERK1/2 phosphorylation in VEGF stimulated HUVEC; format: cell-based, human; details: 1 mM on a peptide basis, vs VEGF stimulated controls
Description: Cells were treated with D-ALG1001 and ALG-1001 for 24 h before activation with VEGF for 5 minutes. […] Cells were lysed with TRIZOL® and processed as previously described for qPCR analysis.
Concentration of protein was determined with the BCA protein assay kit (Thermo Scientific, Rockford, IL). Equal amount of protein was denatured and resolved on 4-15% TGX gels (Bio-Rad, Hercules, CA). Gels were transferred to nitrocellulose membranes, blocked with 3% Bovine Serum Albumin (“BSA”) at RT for 1 h, and probed for GAPDH, FAK, pFAK, MAPK, and pMAPK at 4° C. overnight. Membranes were washed thrice before incubation with HRP-conjugated secondary antibodies followed by incubation with chemiluminescent substrate for visualization.
To elucidate the mechanism through which D-ALG and ALG-1001 influence angiogenic function, cells were pre-treated with D-ALG and ALG-1001 for 24 h. The cells were then stimulated with a high dose of exogenous VEGF for 5 min after which the samples were collected for western blotting. The samples were probed for expression of total FAK, phospho-FAK (Y397), ERK1/2, phospho-ERK1/2, and Cyclophilin B (CycB) with CycB acting as the internal control.

TNFα [1] = experiment: TNFα expression in LPS stimulated RAW264.7 cells (qPCR); format: cell-based, murine; details: only at the highest dose
Description: RAW264.7 cells were seeded at a density of 1×10^5 cells per well in 12-well plates 48 h before treatment. Cells were incubated with D-ALG1001 and ALG-1001 for 24 h, the treatment media was aspirated then LPS at a concentration of 10,000 Endotoxin Units/mL was added to stimulate inflammatory response. Samples were collected 3 h after LPS stimulation for qPCR analysis.
(§1) 100 μL of chloroform was added to the Trizol suspension and the aqueous phase was separated with a centrifuge at 10K RPM at 4° C. for 15 minutes. 400 μL of 2-propanol was added to the aqueous solution and spun again to pellet the RNA. The RNA was washed with 70% ethanol solution, pelleted again, and re-suspended in DEPC (ultrapure treated to inactivated enzymes) water.
To convert RNA to complementary DNA, 2 μg of RNA was converted using a High-Capacity cDNA Reverse Transcription Kit (Applied Biosystems, Foster City, CA). Samples were analyzed using STEPONE PLUS® real-time PCR system (Applied Biosystems) with SYBR Green reagent (ThermoFisher Scientific). Relative expression was quantified with ΔΔCt calculations normalized to controls. Primers for GAPDH was obtained from Bio-Rad Laboratories (Hercules, CA). Primers were purchased from Integrated DNA Technologies (Coralville, IA). Primers for TNFα were: […]

FAK = experiment: Choroid total FAK and phospho-FAK (Y397) ELISA; format: in vivo, Brown Norway rats
Description: (§2) In brief, 500 μL of T-Per supplemented with PHOSSTOP® and proteinase inhibitor cocktail was added to tubes containing dissected choroid. A scoop of 1.6 mm steel homogenization beads was added to each sample and then placed in […]® LT (Qiagen) at an oscillation frequency of 50/s for 15 minutes. For qPCR, 200 μL of TRIZOL® was added to tubes containing choroid and a scoop of 1.6 mm steel homogenization beads was added. The samples were placed in […]® LT at an oscillation frequency of 50/s for 15 minutes.
For protein extracted from tissues, total FAK and FAK (Phospho) [pY397] ELISA kits (Invitrogen) were used to quantify the level of protein expression and the measured protein expression was normalized to the total protein amount of each sample as determined from BCA assays.
To evaluate activation of FAK and ERK pathways, eyes were enucleated at set time points and the choroidal tissue dissected out. Tissues were submerged in a mixture of T-per, proteinase inhibitor, and PhosStop with stainless steel homogenization beads and homogenized to produce protein extracts. Total FAK, total ERK, p-FAK (Y397), and p-44/42 ERK ELISA kits were used to quantify the amount of total and phosphorylated proteins in FAK and ERK pathways. […] However, the level of total FAK protein in ALG-1001 treated animals was elevated at day 14.

VEGF-A = experiment: Choroid VEGF-A qPCR; format: in vivo, Brown Norway rats; details: 7 and 14 days
Description: as §2, §1
(§3) To convert RNA to complementary DNA, 2 μg of RNA was converted using a High-Capacity cDNA Reverse Transcription Kit (Applied Biosystems, Foster City, CA). Samples were analyzed using STEPONE PLUS® real-time PCR system (Applied Biosystems) with SYBR Green reagent (ThermoFisher Scientific). Relative expression was quantified with ΔΔCt calculations normalized to controls. Primers for GAPDH was obtained from Bio-Rad Laboratories (Hercules, CA). Primers were purchased from Integrated DNA Technologies (Coralville, IA). […]

TNFα [2] = experiment: Choroid TNFα qPCR; format: in vivo, Brown Norway rats; details: 7 and 14 days
Description: as §2, §1, §3

IL1β = experiment: Choroid IL1β qPCR; format: in vivo, Brown Norway rats; details: 7 and 14 days
Description: as §2, §1, §3

In the case of C[C@@H](O)[C@H](NC(=O)[C@H](CS(=O)(=O)O)NC(=O)CNC(=O)[C@H](CCCNC(=N)N)NC(=O)CN)C(=O)N1CCC[C@H]1C(=O)O [ALG-1001] (H-GRG[Cya]TP-OH; N-terminus and C-terminus assumed), the tube formation (HUVEC cells) is reported as “increased disruption in tube formation”, the “reduction of phospho-ERK1/2” value (ERK1/2) is reported as about 60% and the “reduction of TNFα expression” value (TNFα [1]) is reported as 20%. For the same molecule, the p-FAK protein (FAK; 7 and 14 days) was “reduction of p-FAK”, the “total FAK protein” value (FAK; day 14) was “elevated” and the “VEGF-A production (qPCR)” value (VEGF-A) was “lower VEGF-A production at 14 days only”. For the same molecule, the “TNFα level (qPCR)” value (TNFα [2]) was “lower TNFα levels across both time points” and the “IL1β expression (qPCR)” value (IL1β) was “only reduced at day 14”.
